Assays:
CYP1A2 = target: T1, CYP1A2 (Homo sapiens, UniProt P05177); assay: Inhibition of CYP1A2 (unknown origin) at 3 uM; format: ADME
T1 sequence (P05177 whole entry): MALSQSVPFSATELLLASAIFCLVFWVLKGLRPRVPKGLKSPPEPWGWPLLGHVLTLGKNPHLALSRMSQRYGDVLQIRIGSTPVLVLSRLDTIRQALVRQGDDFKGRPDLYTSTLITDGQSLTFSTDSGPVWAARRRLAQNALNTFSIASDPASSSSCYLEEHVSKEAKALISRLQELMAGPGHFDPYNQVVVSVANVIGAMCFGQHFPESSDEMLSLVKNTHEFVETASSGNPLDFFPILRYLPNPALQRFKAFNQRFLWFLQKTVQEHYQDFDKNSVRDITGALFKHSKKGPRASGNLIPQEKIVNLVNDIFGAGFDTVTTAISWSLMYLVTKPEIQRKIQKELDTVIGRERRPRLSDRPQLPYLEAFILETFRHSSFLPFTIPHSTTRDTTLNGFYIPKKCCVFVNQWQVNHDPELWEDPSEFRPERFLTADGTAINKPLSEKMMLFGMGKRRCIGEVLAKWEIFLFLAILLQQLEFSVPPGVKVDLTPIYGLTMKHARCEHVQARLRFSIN

Androgen receptor = target: T2, Androgen receptor (Homo sapiens, UniProt P10275); assay: Antagonist activity at human GAL4-DBD fused AR ligand binding domain transfected in human Huh7 cells co-expressing GAL4-RE-Luc assessed as reduction in dihydrotestosterone-induced luciferase activity after 16 hrs by luciferase reporter gene assay; format: cell-based
T2 sequence (P10275 whole entry): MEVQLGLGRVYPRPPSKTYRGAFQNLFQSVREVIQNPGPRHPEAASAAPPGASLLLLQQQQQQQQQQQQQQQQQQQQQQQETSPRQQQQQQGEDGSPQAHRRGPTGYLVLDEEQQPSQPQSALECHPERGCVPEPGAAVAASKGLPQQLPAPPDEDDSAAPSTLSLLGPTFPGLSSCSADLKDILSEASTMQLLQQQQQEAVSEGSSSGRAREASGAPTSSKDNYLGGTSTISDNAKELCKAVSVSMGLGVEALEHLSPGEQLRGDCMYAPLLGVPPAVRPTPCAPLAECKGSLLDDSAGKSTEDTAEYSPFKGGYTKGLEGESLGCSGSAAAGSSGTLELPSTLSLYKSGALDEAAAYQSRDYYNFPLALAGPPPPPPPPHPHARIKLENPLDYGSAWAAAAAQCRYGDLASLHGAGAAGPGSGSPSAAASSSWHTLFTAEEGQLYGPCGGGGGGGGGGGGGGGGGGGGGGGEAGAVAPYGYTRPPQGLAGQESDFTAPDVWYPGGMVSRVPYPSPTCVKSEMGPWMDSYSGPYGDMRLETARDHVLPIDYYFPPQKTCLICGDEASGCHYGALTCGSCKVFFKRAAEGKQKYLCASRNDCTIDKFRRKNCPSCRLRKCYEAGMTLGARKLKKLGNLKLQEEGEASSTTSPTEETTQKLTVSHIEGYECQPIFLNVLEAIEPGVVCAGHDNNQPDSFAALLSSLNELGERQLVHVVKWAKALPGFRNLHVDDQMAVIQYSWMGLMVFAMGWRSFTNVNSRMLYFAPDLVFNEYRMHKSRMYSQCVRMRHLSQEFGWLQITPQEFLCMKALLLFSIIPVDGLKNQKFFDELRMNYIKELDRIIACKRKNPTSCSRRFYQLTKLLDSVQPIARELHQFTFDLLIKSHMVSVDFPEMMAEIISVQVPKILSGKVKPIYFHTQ

Glucocorticoid receptor = target: T3, Glucocorticoid receptor (Homo sapiens, UniProt P04150); assay: Antagonist activity at GR (unknown origin) by Gal4-based cellular assay
T3 sequence (P04150 whole entry): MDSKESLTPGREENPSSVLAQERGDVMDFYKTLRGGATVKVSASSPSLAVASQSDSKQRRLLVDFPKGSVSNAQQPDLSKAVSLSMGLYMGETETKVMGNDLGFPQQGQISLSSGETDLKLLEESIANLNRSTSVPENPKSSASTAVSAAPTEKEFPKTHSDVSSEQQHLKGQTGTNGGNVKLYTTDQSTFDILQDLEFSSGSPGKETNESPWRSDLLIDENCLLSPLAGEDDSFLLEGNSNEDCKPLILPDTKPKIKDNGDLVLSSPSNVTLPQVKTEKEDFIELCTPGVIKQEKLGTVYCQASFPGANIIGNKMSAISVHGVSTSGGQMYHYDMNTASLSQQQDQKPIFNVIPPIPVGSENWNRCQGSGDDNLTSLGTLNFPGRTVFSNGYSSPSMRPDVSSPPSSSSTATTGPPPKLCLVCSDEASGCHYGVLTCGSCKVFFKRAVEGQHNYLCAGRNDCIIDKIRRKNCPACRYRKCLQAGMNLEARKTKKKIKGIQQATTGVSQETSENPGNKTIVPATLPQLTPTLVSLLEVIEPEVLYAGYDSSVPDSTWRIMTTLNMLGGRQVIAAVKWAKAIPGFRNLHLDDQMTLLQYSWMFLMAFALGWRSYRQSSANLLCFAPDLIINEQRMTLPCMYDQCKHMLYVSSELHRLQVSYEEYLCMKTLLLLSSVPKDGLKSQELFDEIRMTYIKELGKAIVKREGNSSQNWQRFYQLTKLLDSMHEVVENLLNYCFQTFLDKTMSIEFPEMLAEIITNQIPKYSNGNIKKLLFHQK

[1] = Distribution coefficient, log D of the compound; format: physicochemical; details: octanol/water

| inhibition at 3 µM (CYP1A2) | IC50 (Androgen receptor) | IC50 (Glucocorticoid receptor) | logD [1] | SMILES |
| --- | --- | --- | --- | --- |
| < 20% | > 10 µM | > 10 µM | 2.8 | C[C@@H]1CN(c2ccc3c(n2)NC(=O)CO3)[C@H](c2ccccc2)CO1 |
| < 10% | > 10 µM | > 10 µM | 2.7 | O=C1COc2ccc(N3CCOC[C@H]3c3ccccc3)cc2N1 |

Source: ChEMBL document CHEMBL4024791, “Identification of Morpholino-2H-pyrido[3,2-b][1,4]oxazin-3(4H)-ones as Nonsteroidal Mineralocorticoid Antagonists” (J Med Chem, 2018)
